Experimental data taken from ChEMBL document CHEMBL3784991, “Design, synthesis and evaluation of novel HIV-1 NNRTIs with dual structural conformations targeting the entrance channel of the NNRTI binding pocket” (Eur J Med Chem, 2016).
Structures can show the parent of a compound that is named as a salt.

Assays:
[1] = Selectivity index, ratio of CC50 for mock infected human MT4 cells to EC50 for HIV2 ROD infected in human MT4 cells; assay type: toxicity, cell-based; details: read-out: Ratio CC50/EC50
[2] = system: Human immunodeficiency virus 2; assay: Antiviral activity against HIV2 ROD infected in human MT4 cells assessed as cell viability after 4 days by MTT assay; assay type: functional, organism-based; details: Human immunodeficiency virus 2, ISOLATE ROD, MT4, 96 h
[3] = Selectivity index, ratio of CC50 for mock infected human MT4 cells to EC50 for HIV1 3B infected in human MT4 cells; assay type: toxicity, cell-based; details: read-out: Ratio CC50/EC50
[4] = Cytotoxicity against mock infected human MT4 cells after 4 days by MTT assay; assay type: cell-based
[5] = system: Human immunodeficiency virus 1; assay: Antiviral activity against wild type HIV1 3B infected in human MT4 cells assessed as cell viability after 4 days by MTT assay; assay type: functional, organism-based; details: Human immunodeficiency virus 1, 3B, MT4, 96 h
[6] = system: Human immunodeficiency virus 1; assay: Potency index, ratio of nevirapine EC50 to compound EC50 for HIV1 3B infected in human MT4 cells; assay type: functional
[7] = system: Human immunodeficiency virus 1; assay: Antiviral activity against HIV1 RES056 harboring reverse transcriptase K103N/[…] double mutant infected in human MT4 cells assessed as cell viability after 4 days by MTT assay; assay type: functional, organism-based; details: Human immunodeficiency virus 1, RES056, MT4, 96 h
[8] = target: Human immunodeficiency virus type 1 reverse transcriptase (Human immunodeficiency virus 1, UniProt Q72547); assay: Inhibition of wild type HIV1 Reverse transcriptase assessed as reduction of biotin deoxyuridine triphosphate incorporation into the wild type HIV1 reverse transcriptase after 1 hr by ELISA
[9] = Selectivity index, ratio of CC50 for mock infected human MT4 cells to EC50 for HIV1 RES056 harboring reverse transcriptase K103N/[…] double mutant infected in human MT4 cells; assay type: toxicity, cell-based; details: read-out: Ratio CC50/EC50

SMILES | selectivity ratio [1] | EC50 [2] [µM] | selectivity ratio [3] | CC50 at 96 h [4] [µM] | EC50 [5] [µM] | Ratio EC50 [6] | EC50 [7] [µM] | IC50 [8] [µM] | selectivity ratio [9]
Nc1ccn([C@H]2CS[C@@H](CO)O2)c(=O)n1 | > 9 | 9.9 | > 34 | > 87.2 | 2.53 |  |  |  | 
Cc1ccc(Nc2nc(Nc3ccc(C#N)cc3)cc(Oc3c(C)cc(C#N)cc3C)n2)cc1 | < 1 | > 8.53 | < 1 | 8.53 | > 8.53 |  |  |  | 
Cc1ccc(Nc2nc(Nc3ccc(Cl)cc3)cc(Oc3c(C)cc(C)cc3C)n2)cc1 | < 1 | > 48.2 | < 1 | 48.2 | > 48.2 |  |  |  | 
Cc1ccc(Nc2nc(Nc3cccc(C)c3)cc(Oc3c(C)cc(C)cc3C)n2)cc1 | < 1 | > 51 | < 1 | 51 | > 51 |  |  |  | 
Cc1cc(C#N)cc(C)c1Oc1cc(Nc2ccc(C#N)cc2)nc(Nc2cccc(C#N)c2)n1 | < 1 | > 2.73 | < 1 | 2.73 | > 2.73 |  |  |  | 
Cc1cc(C)c(Oc2cc(Nc3ccc(C#N)cc3)nc(Nc3cccc(C#N)c3)n2)c(C)c1 | < 1 | > 5.38 | < 1 | 5.38 | > 5.38 |  |  |  | 
Cc1ccc(Nc2nc(Nc3ccc(C#N)cc3)cc(Oc3c(C)cc(C)cc3C)n2)cc1 | < 1 | > 27.1 | < 1 | 27.1 | > 27.1 |  |  |  | 
Cc1cc(C#N)cc(C)c1Oc1cc(Nc2ccc(Cl)cc2)nc(Nc2cccc(C#N)c2)n1 | < 1 | > 3.15 | < 1 | 3.15 | > 3.15 |  |  |  | 
Cc1cccc(Nc2cc(Oc3c(C)cc(C#N)cc3C)nc(Nc3cccc(C#N)c3)n2)c1 | < 1 | > 2.89 | < 1 | 2.89 | > 2.89 |  |  |  | 
Cc1cc(C#N)cc(C)c1Oc1cc(Nc2ccc(C#N)cc2)nc(Nc2ccc(C#N)cc2)n1 | < 1 | > 13 | 117 | 13 | 0.11 | 2 | 2.18 | 0.0727 | 2
Cc1ccc(Nc2nc(Nc3cccc(C)c3)cc(Oc3c(C)cc(C#N)cc3C)n2)cc1 | < 1 | > 17.4 | < 1 | 17.3 | > 17.4 |  |  |  | 
Cc1cccc(Nc2cc(Oc3c(C)cc(C)cc3C)nc(Nc3cccc(C#N)c3)n2)c1 | < 1 | > 25.8 | < 1 | 25.8 | > 25.8 |  |  |  | 
Cc1cc(C#N)cc(C)c1Oc1cc(Nc2ccc(Cl)cc2)nc(Nc2ccc(C#N)cc2)n1 | < 1 | > 3.28 | 4 | 3.28 | 0.79 |  | > 3.28 |  | < 1
Cc1cc(C)c(Oc2cc(Nc3ccc(Cl)cc3)nc(Nc3ccc(C#N)cc3)n2)c(C)c1 | < 1 | > 6.67 | ≤ 4 | 6.68 | ≥ 1.62 |  | > 6.67 |  | < 1
Cc1cc(C)c(Oc2cc(Nc3ccc(Cl)cc3)nc(Nc3cccc(C#N)c3)n2)c(C)c1 | < 1 | > 12.6 | < 1 | 12 | > 12.6 |  |  |  | 
Cc1ccc(Nc2nc(Nc3ccc(Cl)cc3)cc(Oc3c(C)cc(C#N)cc3C)n2)cc1 | 1 | > 274 | > 9 | > 274 | 31.4 |  | > 274 |  | 1
Cc1cc(C)c(Oc2cc(Nc3ccc(C#N)cc3)nc(Nc3ccc(C#N)cc3)n2)c(C)c1 | < 1 | > 5.98 | 8 | 5.98 | 0.78 |  | > 5.98 |  | < 1
Cc1cccc(Nc2cc(Oc3c(C)cc(C)cc3C)nc(Nc3ccc(C#N)cc3)n2)c1 | < 1 | > 24.1 | < 1 | 24.1 | > 24.1 |  | > 24.1 |  | < 1
Cc1cccc(Nc2cc(Oc3c(C)cc(C#N)cc3C)nc(Nc3ccc(C#N)cc3)n2)c1 | < 1 | > 2.96 | 4 | 2.96 | 0.82 |  | > 2.96 |  | < 1
CC(C)Nc1cccnc1N1CCN(C(=O)c2cc3cc(NS(C)(=O)=O)ccc3[nH]2)CC1 [DELAVIRDINE MESYLATE] |  |  | 1080 | 28.2 | 0.027 |  | > 28.2 |  | < 1
O=c1[nH]cnc2c1ncn2[C@H]1CC[C@@H](CO)O1 [DIDANOSINE] | > 3 | 82.1 | > 3 | > 212 | 76 |  |  |  | 
O=C1Nc2ccc(Cl)cc2[C@@](C#CC2CC2)(C(F)(F)F)O1 [EFAVIRENZ] |  |  | > 1210 | > 6.34 |  |  | 0.225 |  | > 28
Cc1cc(C#N)cc(C)c1Oc1nc(Nc2ccc(C#N)cc2)nc(N)c1Br [ETRAVIRINE] |  |  |  | 2.16 | 0.0039 |  | 0.034 |  | 
Cc1ccnc2c1NC(=O)c1cccnc1N2C1CC1 [NEVIRAPINE] |  |  |  | > 15 |  |  | > 15 |  | 
Cc1cn([C@H]2C[C@H](N=[N+]=[N-])[C@@H](CO)O2)c(=O)[nH]c1=O [ZIDOVUDINE] | > 925 | 0.0082 | > 1000 | > 7.48 |  |  | 0.017 |  | > 448
